Measurements: patent publication US9187467B2, “2-phenyl benzothiazole linked imidazole compounds as potential anticancer agents and process for the preparation thereof” (Council of Scientific and Industrial Research, priority 2012, dated 2015)
Like-named read-outs stand apart in the source and are kept apart here.

Key:
Type in all cases: cell-based, human
A549/ATCC = test: SRB anticancer assay, non-small lung; set-up: Log10GI50: unit not given here
NCI-H226 = test: SRB anticancer assay, non-small lung; details: Homo sapiens, NCI-H226, 48 h
NCI-H522 = test: SRB anticancer assay, non-small lung; set-up: Log10GI50: unit not given here
COLO 205 = test: SRB anticancer assay, colon; details: Homo sapiens, COLO 205, 48 h
HT29 = test: SRB anticancer assay, colon; details: Homo sapiens, HT-29; HT29, 48 h
KM12 = test: SRB anticancer assay, colon; details: Homo sapiens, KM12, 48 h
SF-539 = test: SRB anticancer assay, CNS; set-up: Log10GI50: unit not given here
SNB-19 = test: SRB anticancer assay, CNS; set-up: Log10GI50: unit not given here
U251 = test: SRB anticancer assay, CNS; set-up: Log10GI50: unit not given here; details: U251; present compounds
OVCAR-4 = test: SRB anticancer assay, ovarian; details: Homo sapiens, OVCAR-4, 48 h
OVCAR-8 = test: SRB anticancer assay, ovarian; set-up: Log10GI50: unit not given here
NCI/ADR-RES = test: SRB anticancer assay, ovarian; set-up: Log10GI50: unit not given here; details: for Log10GI50: present compounds
SK-OV-3 = test: SRB anticancer assay, ovarian; details: Homo sapiens, SK-OV-3, 48 h
ACHN = test: SRB anticancer assay, renal; set-up: Log10GI50: unit not given here
DU-145 = test: SRB anticancer assay, prostate; set-up: Log10GI50: unit not given here
MDA-MB-231/ATCC = test: SRB anticancer assay, breast; set-up: Log10GI50: unit not given here; details: for GI50: 48 h
MDA-MB-468 = test: SRB anticancer assay, breast; set-up: unit not given here; details: present compounds
UACC-257 = test: SRB anticancer assay, melanoma
Breast cancer cell lines = test: SRB anticancer assay, panel result
In short: (§1)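 Cells from a sixty-line human panel were treated continuously for 48 h at no fewer than five concentrations separated by 10-fold dilutions. Growth was then estimated with an SRB protein assay, and dose–response curves were built per cell line.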

CNS cancer cell lines = test: SRB anticancer assay, panel result
In short: as §1

Colon cancer cell lines = test: SRB anticancer assay, panel result
In short: as §1

[1] = tested on: Leukemia cancer cell lines; test: SRB anticancer assay, panel result
In short: as §1

[2] = tested on: Melanoma cancer cell lines; test: SRB anticancer assay, panel result
In short: as §1

[3] = tested on: Non-small cell lung cancer cell lines; test: SRB anticancer assay, panel result
In short: as §1

[4] = tested on: Ovarian cancer cell lines; test: SRB anticancer assay, panel result
In short: as §1

[5] = tested on: Prostate cancer cell lines; test: SRB anticancer assay, panel result
In short: as §1

Renal cancer cell lines = test: SRB anticancer assay, panel result
In short: as §1

COc1cc(-c2cncn2-c2ccc(-c3nc4ccc(F)cc4s3)cc2)ccc1F [Compound 4c, 6-Fluoro-2-(4-(5-(4-fluoro-3-methoxyphenyl)-1H-imidazol-1-yl)phenyl)benzo[d]thiazole]
GI50 (A549/ATCC; Homo sapiens, 48 h): 12.3 µM
Log10GI50 (A549/ATCC; present compounds): −4.91
GI50 (NCI-H226): 49.3 µM
GI50 (NCI-H522; Homo sapiens, NCI-H522, 48 h): 9.9 µM
Log10GI50 (NCI-H522; NCI-H522, present compounds): −5.00
GI50 (COLO 205): 56.8 µM
GI50 (HT29): 10.8 µM
GI50 (KM12): 6.4 µM
GI50 (SF-539; Homo sapiens, SF-539, 48 h): > 100 µM
Log10GI50 (SF-539; SF-539, present compounds): −4.12
GI50 (SNB-19; Homo sapiens, SNB-19, 48 h): 20.6 µM
Log10GI50 (SNB-19; SNB-19, present compounds): >−4.0
Log10GI50 (U251): −4.90
GI50 (OVCAR-4): 11.4 µM
GI50 (OVCAR-8; Homo sapiens, OVCAR-8, 48 h): 15.2 µM
Log10GI50 (OVCAR-8; OVCAR-8, present compounds): −4.82
GI50 (NCI/ADR-RES; Homo sapiens, NCI/ADR-RES, 48 h): 30.6 µM
Log10GI50 (NCI/ADR-RES; NCI/ADR-RES (row head NCI/ADR-)): −4.51
Log10GI50 (NCI/ADR-RES; listed as head printed RES (second line of NCI/ADR-RES)): >−4.0
GI50 (SK-OV-3): > 100 µM
GI50 (ACHN; Homo sapiens, 48 h): 29.1 µM
Log10GI50 (ACHN; present compounds): −4.54
Log10GI50 (DU-145; DU-145, present compounds): −4.85
GI50 (DU-145; Homo sapiens, DU-145, 48 h): 14.3 µM
GI50 (MDA-MB-231/ATCC; Homo sapiens, MDA-MB-231, 48 h, MDA-MB-231/ATCC (row head MDA-MB-), read-out: GI50): 32.2 µM
Log10GI50 (MDA-MB-231/ATCC; MDA-MB-231/ATCC, present compounds): −4.49
GI50 (MDA-MB-231/ATCC; listed as head printed 231/ATCC (second line of MDA-MB-231/ATCC)): —a
Log10GI50 (MDA-MB-468): −4.96
GI50 (UACC-257; Homo sapiens, UACC-257, 48 h): 4.11 µM
Log10GI50 (UACC-257; UACC-257, present compounds): −5.39 log10(M)
mean graph midpoint value (MG_MID) of Log10 GI50 (Breast cancer cell lines; Breast panel): −4.82 mol/L
mean graph midpoint value (MG_MID) of log10 TGI (Breast cancer cell lines; Breast panel, total inhibition of net cell growth): −4.02
CC50 (Breast cancer cell lines; Homo sapiens, Breast panel, 50% net cell death, read-out: mean graph midpoint value (MG_MID) of Log10 LC50 (converted)): > 100 µM
GI50 (Breast cancer cell lines; Homo sapiens, six breast cancer cell lines, exposure at least 48 h, read-out: GI50, range over the panel): 7.98 to 32.2 µM
mean graph midpoint value (MG_MID) of Log10 GI50 (CNS cancer cell lines; CNS panel): −4.52 mol/L
mean graph midpoint value (MG_MID) of log10 TGI (CNS cancer cell lines; CNS panel, total inhibition of net cell growth): −4.05
CC50 (CNS cancer cell lines; Homo sapiens, CNS panel, 50% net cell death, read-out: mean graph midpoint value (MG_MID) of Log10 LC50 (converted)): > 100 µM
GI50 (CNS cancer cell lines; Homo sapiens, six CNS cancer cell lines, exposure at least 48 h, read-out: GI50, range over the panel): 12.6 to 75.9 µM
mean graph midpoint value (MG_MID) of Log10 GI50 (Colon cancer cell lines; Colon panel): −4.71 log10(mol/L)
mean graph midpoint value (MG_MID) of log10 TGI (Colon cancer cell lines; Colon panel, total inhibition of net cell growth): −4.06
LC50 (Colon cancer cell lines; Homo sapiens, Colon panel, 50% net cell death, read-out: mean graph midpoint value (MG_MID) of Log10 LC50 (converted)): > 100 µM
GI50 (Colon cancer cell lines; Homo sapiens, seven colon cancer cell lines, exposure at least 48 h, read-out: GI50, range over the panel): 4.36 to 82.3 µM
LC50 ([1]; Homo sapiens, Leukemia panel, 50% net cell death, read-out: mean graph midpoint value (MG_MID) of Log10 LC50 (converted)): > 100 µM
GI50 ([1]; Homo sapiens, six leukemia cancer cell lines, exposure at least 48 h, read-out: GI50, range over the panel): 2.5 to 6.92 µM
mean graph midpoint value (MG_MID) of Log10 GI50 ([1]; Leukemia panel): −5.38 log10(mol/L)
mean graph midpoint value (MG_MID) of log10 TGI ([1]; Leukemia panel, total inhibition of net cell growth): −4.19
LC50 ([2]; Homo sapiens, Melanoma panel, 50% net cell death, read-out: mean graph midpoint value (MG_MID) of Log10 LC50 (converted)): > 100 µM
GI50 ([2]; Homo sapiens, nine melanoma cancer cell lines, exposure at least 48 h, read-out: GI50, range over the panel): 4.11 to 39.7 µM
mean graph midpoint value (MG_MID) of Log10 GI50 ([2]; Melanoma panel): −4.82 log10(mol/L)
mean graph midpoint value (MG_MID) of log10 TGI ([2]; Melanoma panel, total inhibition of net cell growth): >−4.0
LC50 ([3]; Homo sapiens, Non-small cell lung panel, 50% net cell death, read-out: mean graph midpoint value (MG_MID) of Log10 LC50 (converted)): 93.3 µM
GI50 ([3]; Homo sapiens, nine Non-small cell lung cancer cell lines, exposure at least 48 h, read-out: GI50, range over the panel): 5.47 to 49.3 µM
mean graph midpoint value (MG_MID) of Log10 GI50 ([3]; Non-small cell lung panel): −4.83 log10(M)
LC50 ([4]; Homo sapiens, Ovarian panel, 50% net cell death, read-out: mean graph midpoint value (MG_MID) of Log10 LC50 (converted)): > 100 µM
GI50 ([4]; Homo sapiens, seven ovarian cancer cell lines, exposure at least 48 h, read-out: GI50, range over the panel): 5.71 to 30.6 µM
mean graph midpoint value (MG_MID) of Log10 GI50 ([4]; Ovarian panel): −4.62 mol/L
mean graph midpoint value (MG_MID) of log10 TGI ([4]; Ovarian panel, total inhibition of net cell growth): −4.11
LC50 ([5]; Homo sapiens, Prostate panel, 50% net cell death, read-out: mean graph midpoint value (MG_MID) of Log10 LC50 (converted)): > 100 µM
GI50 ([5]; Homo sapiens, two prostate cancer cell lines (PC-3, DU-145), exposure at least 48 h, read-out: GI50, range over the panel): 3.47 to 14.3 µM
mean graph midpoint value (MG_MID) of Log10 GI50 ([5]; Prostate panel): −5.16 mol/L
mean graph midpoint value (MG_MID) of log10 TGI ([5]; Prostate panel, total inhibition of net cell growth): −4.06
CC50 (Renal cancer cell lines; Homo sapiens, Renal panel, 50% net cell death, read-out: mean graph midpoint value (MG_MID) of Log10 LC50 (converted)): 95.5 µM
GI50 (Renal cancer cell lines; Homo sapiens, eight renal cancer cell lines, exposure at least 48 h, read-out: GI50, range over the panel): 0.0432 to 38.8 µM
mean graph midpoint value (MG_MID) of Log10 GI50 (Renal cancer cell lines; Renal panel): −4.98 log10(mol/L)
mean graph midpoint value (MG_MID) of log10 TGI (Renal cancer cell lines; Renal panel, total inhibition of net cell growth): −4.11
